From ChEMBL document CHEMBL3882725, “Indazole derivatives as JNK inhibitors and compositions and methods related thereto” (2002)

molecular target: Mitogen-activated protein kinase 9 (Homo sapiens, UniProt P45984); experiment: Inhibition of His6-tagged JNK2 (unknown origin) assessed as reduction in c-Jun phosphorylation using GST-c-Jun (1 to 79 residues) and [gamma32P]ATP incubated for 1 hr by scintillation counting assay
Sequence (P45984 whole entry, the tested form may be a part): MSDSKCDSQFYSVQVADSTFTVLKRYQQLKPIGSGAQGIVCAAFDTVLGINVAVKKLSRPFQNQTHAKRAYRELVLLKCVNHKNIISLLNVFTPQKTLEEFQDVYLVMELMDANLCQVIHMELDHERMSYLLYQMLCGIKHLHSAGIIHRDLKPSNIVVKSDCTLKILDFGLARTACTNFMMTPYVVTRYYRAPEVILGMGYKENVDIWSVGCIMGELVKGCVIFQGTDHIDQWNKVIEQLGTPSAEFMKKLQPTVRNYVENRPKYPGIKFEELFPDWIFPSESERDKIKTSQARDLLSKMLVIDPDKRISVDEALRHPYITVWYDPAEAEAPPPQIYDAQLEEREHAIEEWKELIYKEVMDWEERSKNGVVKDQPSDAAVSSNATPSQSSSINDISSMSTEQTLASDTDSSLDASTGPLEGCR

Compound | IC50
CC(C)c1cccc(-c2n[nH]c3ccc(-c4nc[nH]n4)cc23)c1 | 1 to 10 µM
CN(C)CCOc1ccc(-c2n[nH]c3ccc(C(N)=O)cc23)cc1 | 1 to 10 µM
Nc1cccc(-c2n[nH]c3ccc(-c4nnn[nH]4)cc23)c1 | 0.5 to 10 µM
CC(C)COc1ccc(-c2n[nH]c3ccc(-c4nnn[nH]4)cc23)cc1 | 1 to 10 µM
NC(=O)c1ccc2[nH]nc(-c3cc4ccccc4o3)c2c1 | 1 to 10 µM
Clc1ccc(-c2n[nH]c3ccc(-c4nnn[nH]4)cc23)cc1 | 0.5 to 10 µM
NC(=O)c1ccc2[nH]nc(-c3cc4ccccc4s3)c2c1 | 1 to 10 µM
c1ccc2cc(-c3n[nH]c4ccc(-c5ncn[nH]5)cc34)ccc2c1 | 1 to 10 µM
CC(C)c1ccc(-c2n[nH]c3ccc(-c4nnn[nH]4)cc23)cc1 | 1 to 10 µM
CN(C)CCOc1ccc(-c2n[nH]c3ccc(-c4ncn[nH]4)cc23)cc1 | 1 to 10 µM
c1ccc2oc(-c3n[nH]c4ccc(-c5nnn[nH]5)cc34)cc2c1 | 0.5 to 10 µM
C(=C\c1n[nH]c2ccc(-c3nc[nH]n3)cc12)/c1ccccc1 | 1 to 10 µM
NC(=O)c1ccc2[nH]nc(-c3ccc4ccccc4c3)c2c1 | 1 to 10 µM
O=C(O)CCc1ccc2[nH]nc(-c3ccc(F)cc3)c2c1 | ≤ 10 µM
NC(=O)c1ccc2[nH]nc(-c3ccc(O)cc3)c2c1 | 1 to 10 µM
c1nc(-c2ccc3[nH]nc(-c4ccsc4)c3c2)n[nH]1 | 1 to 10 µM
Oc1ccccc1-c1n[nH]c2ccc(-c3nnn[nH]3)cc12 | 1 to 10 µM
c1ccc2cc(-c3n[nH]c4ccc(-c5nnn[nH]5)cc34)ccc2c1 | 0.5 to 10 µM
COc1ccccc1-c1n[nH]c2ccc(-c3nnn[nH]3)cc12 | 1 to 10 µM
NC(=O)c1ccc2[nH]nc(-c3ccoc3)c2c1 | 1 to 10 µM
COc1ccc(-c2n[nH]c3ccc(-c4nnn[nH]4)cc23)cc1 | 0.5 to 10 µM
c1csc(-c2n[nH]c3ccc(-c4nnn[nH]4)cc23)c1 | 0.5 to 10 µM
CN(C)c1ccc(-c2n[nH]c3ccc(C(N)=O)cc23)cc1 | 1 to 10 µM
C(#Cc1n[nH]c2ccc(-c3nnn[nH]3)cc12)c1ccccc1 | 1 to 10 µM

Compound | IC50
Oc1cccc(-c2n[nH]c3ccc(-c4nnn[nH]4)cc23)c1 | 0.5 to 10 µM
COc1cccc(-c2n[nH]c3ccc(-c4nnn[nH]4)cc23)c1 | 0.5 to 10 µM
c1cc(-c2n[nH]c3ccc(-c4nnn[nH]4)cc23)ccn1 | 0.5 to 10 µM
CC(C)c1cccc(-c2n[nH]c3ccc(C(N)=O)cc23)c1 | ≤ 10 µM
Fc1ccc(-c2n[nH]c3ccc(CCc4ccccc4)cc23)cc1 | ≤ 10 µM
CN(C)c1ccc(-c2n[nH]c3ccc(-c4ncn[nH]4)cc23)cc1 | 1 to 10 µM
OC(Cc1ccccc1)c1ccc2[nH]nc(-c3ccc(F)cc3)c2c1 (configuration not stated) | 1 to 10 µM
O=C(Cc1ccccc1)c1ccc2[nH]nc(-c3ccc(F)cc3)c2c1 | ≤ 10 µM
c1ccc(CCc2n[nH]c3ccc(-c4nnn[nH]4)cc23)cc1 | 1 to 10 µM
Oc1ccc(-c2n[nH]c3ccc(-c4ncn[nH]4)cc23)cc1 | 1 to 10 µM
c1coc(-c2n[nH]c3ccc(-c4nnn[nH]4)cc23)c1 | 0.5 to 10 µM
O=C(O)c1ccc2[nH]nc(-c3cc4ccccc4s3)c2c1 | 1 to 10 µM
O=C(O)c1ccc(CCc2ccc3[nH]nc(-c4ccc(F)cc4)c3c2)cc1 | ≤ 10 µM
NC(=O)c1ccc2[nH]nc(C#Cc3ccccc3)c2c1 | 1 to 10 µM
COC(=O)c1ccc2[nH]nc(-c3cc4ccccc4s3)c2c1 | ≤ 10 µM
Fc1ccc(-c2n[nH]c3ccc(CCc4ccccn4)cc23)cc1 | ≤ 10 µM
COc1ccc(-c2n[nH]c3ccc(-c4ncn[nH]4)cc23)cc1 | 1 to 10 µM
c1n[nH]c(-c2ccc3[nH]nc(-c4ccoc4)c3c2)n1 | 1 to 10 µM
C(=C\c1n[nH]c2ccc(-c3nnn[nH]3)cc12)/c1ccccc1 | 0.5 to 10 µM
c1cc2[nH]nc(-c3ccc4c(c3)OCO4)c2cc1-c1nnn[nH]1 | 0.5 to 10 µM
c1cncc(-c2n[nH]c3ccc(-c4nnn[nH]4)cc23)c1 | ≤ 10 µM
c1cc(-c2n[nH]c3ccc(-c4nnn[nH]4)cc23)cs1 | 0.5 to 10 µM
COc1ccc(-c2n[nH]c3ccc(C(N)=O)cc23)cc1 | 1 to 10 µM
